Where two headings read alike, the source gives them in different places.
Key:
[1] = tested on: HepG2 cells; experiment: Intracellular ATP content (cell viability) assay; type: cell-based, human; conditions: for IC50: Homo sapiens, HepG2
[2] = tested on: HepG2 cells; experiment: cells; conditions: Homo sapiens; for Emax: HepG2, read-out: MMP assays efficacy (%) HepG2
[3] = tested on: Nrf2/ARE (ARE-bla HepG2 cells); experiment: ARE β-lactamase reporter gene assay; type: cell-based, human; conditions: for EC50: Homo sapiens, read-out: ARE (HepG2) EC50
[4] = tested on: HepG2 cells; experiment: ROS-Glo hydrogen peroxide (ROS) assay; type: cell-based, human; conditions: Homo sapiens, read-out: ROS (HepG2) EC50
[5] = tested on: HeLa cells expressing YFP-Parkin; experiment: Parkin translocation assay; type: cell-based, human
[6] = tested on: p53 (p53-bla HCT-116 cells); experiment: p53 β-lactamase reporter gene assay; type: cell-based, human
[7] = tested on: hNSC; experiment: MMP assay in human neural stem cells (hNSC); type: cell-based; conditions: Homo sapiens, Neural stem cell; 1 h treatment; fresh re-sourced stocks; mean±SD of three experiments; read-out: hNSC IC50 (MMP)
[8] = tested on: rat primary hepatocytes; experiment: MMP assay in rat primary hepatocytes; conditions: for Rat hepatocytes (efficacy) (MMP): % of positive control, mean±SD of three experiments; for IC50: Rattus norvegicus, Hepatocyte
[9] = tested on: Caenorhabditis elegans (Bristol N2); experiment: C. elegans larval development and growth assay; conditions: 48 h exposure
[10] = tested on: Caenorhabditis elegans strain PE255; experiment: In vivo C. elegans ATP status assay
[11] = tested on: HepG2 cells; conditions: cited from earlier work; for IC50: read-out: MMP assays IC50 (µM), qHTS-HepG2
[12] = tested on: isolated rat liver mitochondria; experiment: Oxygen consumption, Clark-type oxygen electrode; type: biochemical
[13] = tested on: rat primary hepatocytes
[14] = tested on: HepG2 cells
[15] = 5 mM glucose, 40 h treatment, mean±SD of three experiments, read-out: ATP (HepG2, glucose) IC50
[16] = 10 mM galactose, 40 h treatment, mean±SD of three experiments, read-out: ATP (HepG2, galactose) IC50
[17] = HepG2, 1 h, read-out: HepG2 IC50 Galactose (MMP)
[18] = HepG2, 1 h, read-out: HepG2 IC50 Glucose (MMP)
[19] = 16 h incubation, mean±SD of three experiments
[20] = HepG2, 2 h treatment, mean±SD of three experiments
[21] = HeLa cells stably expressing YFP-Parkin, treated for 2 h
[22] = 1 h, read-out: Rat hepatocytes IC50 (MMP)
[23] = HepG2, read-out: MMP assays IC50 (µM) HepG2
[24] = read-out: MMP assays IC50 (µM) Rat Hepatocytes

## CCc1cc(Cc2cc(CC)cc(C(C)(C)C)c2O)c(O)c(C(C)(C)C)c1
[1]; [15]
  IC50: 21.6 ± 13.8 µM
[1]; [16]
  IC50: 29.8 ± 7.25 µM
[2]; [17]
  IC50: 6.3 ± 0.43 µM
[2]; [18]
  IC50: 5.42 ± 0.62 µM
[3]; [19]
  ARE (HepG2) EC50: Inactive
[4]; [20]
  EC50: 29.6 ± 4.08 µM
[5]; [21]
  Parkin recruitment: Inactive
[6]; [19]
  p53 (HCT-116) EC50: Inactive
[7]
  IC50: 1.28 ± 0.56 µM
[8]
  Rat hepatocytes (efficacy) (MMP): −103±17.9%
[8]; [22]
  IC50: 29.9 ± 7.25 µM
[9]
  LEC (lowest effect concentration), larval growth assay: ≤ 10 µM

## O=C(O)c1cccnc1Nc1cccc(C(F)(F)F)c1 [Niflumic acid, reference compound]
[1]; 5 mM glucose, 40 h treatment, mean±SD of three experiments
  ATP (HepG2, glucose) IC50: Inactive
[1]; 10 mM galactose, 40 h treatment, mean±SD of three experiments
  ATP (HepG2, galactose) IC50: Inactive
[2]; [17]
  IC50: 42.8 µM
[2]; [18]
  IC50: 44.6 ± 3.02 µM
[2]; [23]
  IC50: 15.5 µM
[2]
  Emax: 114%
[10]; 0.5–100μM, 24 h exposure
  effect on ATP content (in words): statistically significant decreases in ATP content
[10]; Caenorhabditis elegans, read-out: LEC LUM: lowest effect concentration for luminescence, a measure of nematode ATP content
  minimal effective concentration: 100 µM
[3]; HepG2, 16 h incubation, mean±SD of three experiments
  EC50: 25.1 ± 2.05 µM
[4]; [20]
  EC50: 6.35 ± 2.16 µM
[11]
  MMP assays efficacy (%) qHTS-HepG2: -113±5%
  IC50: 13 ± 2.17 µM
[5]; [21]
  Parkin recruitment: Inactive
[7]
  IC50: 38.3 ± 4.41 µM
[8]
  Rat hepatocytes (efficacy) (MMP): −98.8±9.27%
[8]; [22]
  IC50: 19.9 ± 1.35 µM
[8]; [24]
  IC50: 6.71 ± 1.14 µM
[8]; rat hepatocytes, mean ± SD of three experiments
  MMP assays efficacy (%) Rat Hepatocytes: -127±56%
[9]; 0.5–100μM
  effect on larval growth (in words): did not affect growth
[12]; 0.032 µM, glutamate/malate driven state 3 respiration, isolated rat liver mitochondria
  I-ADP, % of control (O2 consumption rate): 91 (32.6) % of control
[12]; 0.032 µM, glutamate/malate driven state 4 respiration, isolated rat liver mitochondria
  I-sub, % of control (O2 consumption rate): 116 (11.1) % of control
[12]; 0.032 µM, succinate-driven state 3 respiration, isolated rat liver mitochondria
  II-ADP, % of control (O2 consumption rate): 90 (48.1) % of control
[12]; 0.032 µM, succinate-driven state 4 respiration, isolated rat liver mitochondria
  II-sub, % of control (O2 consumption rate): 110 (18.1) % of control
[12]; 0.16 µM, glutamate/malate driven state 3 respiration, isolated rat liver mitochondria
  I-ADP, % of control (O2 consumption rate): 82 (29.2) % of control
[12]; 0.16 µM, glutamate/malate driven state 4 respiration, isolated rat liver mitochondria
  I-sub, % of control (O2 consumption rate): 111 (10.7) % of control
[12]; 0.16 µM, succinate-driven state 3 respiration, isolated rat liver mitochondria
  II-ADP, % of control (O2 consumption rate): 101 (54.0) % of control
[12]; 0.16 µM, succinate-driven state 4 respiration, isolated rat liver mitochondria
  II-sub, % of control (O2 consumption rate): 124 (20.4) % of control
[12]; 0.8 µM, glutamate/malate driven state 3 respiration, isolated rat liver mitochondria
  I-ADP, % of control (O2 consumption rate): 91 (32.5) % of control
[12]; 0.8 µM, glutamate/malate driven state 4 respiration, isolated rat liver mitochondria
  I-sub, % of control (O2 consumption rate): 131 (12.6) % of control
[12]; 0.8 µM, succinate-driven state 3 respiration, isolated rat liver mitochondria
  II-ADP, % of control (O2 consumption rate): 89 (47.6) % of control
[12]; 0.8 µM, succinate-driven state 4 respiration, isolated rat liver mitochondria
  II-sub, % of control (O2 consumption rate): 135 (22.1) % of control
[12]; 4 µM, glutamate/malate driven state 3 respiration, isolated rat liver mitochondria
  I-ADP, % of control (O2 consumption rate): 86 (30.8) % of control
[12]; 4 µM, glutamate/malate driven state 4 respiration, isolated rat liver mitochondria
  I-sub, % of control (O2 consumption rate): 180 (17.3) % of control
[12]; 4 µM, succinate-driven state 3 respiration, isolated rat liver mitochondria
  II-ADP, % of control (O2 consumption rate): 96 (51.1) % of control
[12]; 4 µM, succinate-driven state 4 respiration, isolated rat liver mitochondria
  II-sub, % of control (O2 consumption rate): 221 (36.2) % of control
[12]; 20 µM, glutamate/malate driven state 3 respiration, isolated rat liver mitochondria
  I-ADP, % of control (O2 consumption rate): 101 (36.0) % of control
[12]; 20 µM, glutamate/malate driven state 4 respiration, isolated rat liver mitochondria
  I-sub, % of control (O2 consumption rate): 380 (36.5) % of control
[12]; 20 µM, succinate-driven state 3 respiration, isolated rat liver mitochondria
  II-ADP, % of control (O2 consumption rate): 54 (28.9) % of control
[12]; 20 µM, succinate-driven state 4 respiration, isolated rat liver mitochondria
  II-sub, % of control (O2 consumption rate): 195 (32.0) % of control
[12]; 100 µM, glutamate/malate driven state 3 respiration, isolated rat liver mitochondria
  I-ADP, % of control (O2 consumption rate): 70 (32.1) % of control
[12]; 100 µM, glutamate/malate driven state 4 respiration, isolated rat liver mitochondria
  I-sub, % of control (O2 consumption rate): 234 (36.2) % of control
[12]; 100 µM, succinate-driven state 3 respiration, isolated rat liver mitochondria
  II-ADP, % of control (O2 consumption rate): 23 (16.4) % of control
[12]; 100 µM, succinate-driven state 4 respiration, isolated rat liver mitochondria
  II-sub, % of control (O2 consumption rate): 56 (17.7) % of control
[12]; mitochondrial respiration in isolated rat liver mitochondria, Clark type oxygen electrode, over tested concentrations
  Potential Mechanism: Uncoupler at low concentrations (0.16-4 µM), and Uncoupler + inhibitor at high concentrations ( 20-100 µM)

## CO[C@H]1/C=C/O[C@@]2(C)Oc3c(C)c(O)c4c(O)c(c(/C=N/N5CCN(C)CC5)c(O)c4c3C2=O)NC(=O)/C(C)=C\C=C\[C@H](C)[C@H](O)[C@@H](C)[C@@H](O)[C@@H](C)[C@H](OC(C)=O)[C@@H]1C [Rifampicin, reference compound]
[1]
  ATP (HepG2, galactose) IC50: Inactive
  ATP (HepG2, glucose) IC50: Inactive
[2]; [18]
  IC50: 63.2 µM
[2]; [23]
  IC50: 15.5 µM
[2]
  Emax: 85%
[3]; HepG2, 16 h
  EC50: 45.2 µM
[4]; HepG2, 2 h
  EC50: 34.5 µM
[11]
  MMP assays efficacy (%) qHTS-HepG2: -94±13%
  IC50: 25.1 ± 6.38 µM
[5]
  Parkin recruitment: Inactive
[6]
  p53 (HCT-116) EC50: Inactive
[8]; [22]
  IC50: 41.4 µM
[8]; [24]
  IC50: 6.15 ± 2.2 µM
[13]
  MMP assays efficacy (%) Rat Hepatocytes: -68±40%
  Rat hepatocytes (efficacy) (MMP): 41.4±5.71 ( −97.5±6.10 ) %
[14]
  HepG2 IC50 Galactose (MMP): Inactive
[12]
  Potential Mechanism: Inactive
[12]; 4 µM
  I-ADP, % of control (O2 consumption rate): 85 (46.4) % of control
  I-sub, % of control (O2 consumption rate): 89 (11.7) % of control
  II-ADP, % of control (O2 consumption rate): 95 (83.4) % of control
  II-sub, % of control (O2 consumption rate): 96 (23.5) % of control
[12]; 20 µM
  I-ADP, % of control (O2 consumption rate): 71 (39.1) % of control
  I-sub, % of control (O2 consumption rate): 86 (11.3) % of control
  II-ADP, % of control (O2 consumption rate): 95 (84.2) % of control
  II-sub, % of control (O2 consumption rate): 107 (26.2) % of control

## Cc1cc(Cc2cc(C)cc(C(C)(C)C)c2O)c(O)c(C(C)(C)C)c1 [2,2′-Methylenebis(4-methyl-6-tert-butylphenol)]
[1]; [15]
  IC50: 34.1 ± 3.93 µM
[1]; [16]
  IC50: 34 µM
[2]; [17]
  IC50: 6.6 ± 1.12 µM
[2]; [18]
  IC50: 5.67 ± 1.02 µM
[3]; [19]
  ARE (HepG2) EC50: Inactive
[4]; [20]
  EC50: 31.4 ± 10.1 µM
[5]; [21]
  Parkin recruitment: Inactive
[6]; [19]
  p53 (HCT-116) EC50: Inactive
[7]
  IC50: 0.88 ± 0.25 µM
[8]
  Rat hepatocytes (efficacy) (MMP): −121±16.7%
[8]; [22]
  IC50: 6.89 ± 1.44 µM
[9]
  LEC (lowest effect concentration), larval growth assay: ≤ 10 µM

Reference: PMC6112376, “Comprehensive Analyses and Prioritization of Tox21 10K Chemicals Affecting Mitochondrial Function by in-Depth Mechanistic Studies” (Environmental Health Perspectives, 2018)
